Data on 1 compound can be found in patent EP2444396A1, “PHOTOPROTECTIVE COMPOSITION” (Apoteknos Para La Piel, S.L., priority 2009, dated 2010).

The test system of data set [1] is Erythema induced by UVB radiation in mouse. In words: Photoprotection: erythema induced by UVB radiation in mouse skin. As to conditions: individual animals No. 1-10; 0.5% gel topical, about 2.5 kJ/m^2 UVB, 24 hours after exposure. In kind it is in vivo. Set-up: key to Erythema induced by UVB radiation in mouse: presence (+); absence (-). From the text:
The effect of p-nitrolophine and m-nitrolophine on erythema due to exposing the mouse skin to an irradiation source at maximum in the UVB region has been studied in these assays. The results obtained have been compared with the effect of 4-methylbenzylidene camphor (P5000) a substance considered as a UVB solar filter and with the effect of butyl methoxydibenzoylmethane (P1789) an UVA type filter, both products being commonly used in antisolar cosmetics.
35 male mice weighing more than 20 grams have been used. After receiving them, the animals were acclimated for 7 days at the place where the assays were preformed, they were being placed in a cage with controlled temperature (22°C), with relative humidity between 50% and 75%, replacing fresh filtered air approximately 10 times per hour and with 12 h light/dark cycles (7.00 - 19.00 light and from 19.00 to 7.00 dark). For this period and during the experimental period, the animals were fed ad libitum with standard diet for rodents and running water as drink.
The animals were randomly distributed into 4 experimental groups according to Table 7. The products to be tested were directly used, applying them in the form of a gel on an area of the skin such that each animal form its own control.
The test was performed following the method described by Winder et al. ["A study of Pharmacological influences on ultraviolet erythema in guinea pigs". Arch. Int Pharmacodyn, 116:261-292; 1958] and by other authors [Wendy et al. "The local antinociceptive and topical antiinflamatory effects of propyl gallate in rodents". Br. J. Pharmacol, 58:573 -581; 1976; Katiyar et al. "Protective Effects of Silymarin Against Photocarcinogenesis in a Mouse Skin Model". J Natl Cancer Inst 89:556-65; 1997] with slight modifications. The day […] the assay, as much hair as possible were removed from the animals by applying a layer of commercial hair-removing cream to remove all the trace of hair and to leave the skin of the back completely bare. The rest of the hair-removing cream were removed by means of washing and rinsing with running water and the animals were the returned to their corresponding cages where they remained until the following day.
On the day of the assay, the substances to be assayed were blindly applied on the back of the previously labelled animals following a random pattern (randomized). After applying the corresponding treatments, the animals were placed and pinned to the presentation platform of the equipment. The animals were then placed 8 cm from an ultraviolet light source of 4*40w with 313 nm of fundamental emission and a range comprised approximately between 290 and 350 nm and with an anti-UVC filter. The emission spectrum of said light source is depicted in Figure 1.
The exposure was maintained until all the animals have received an approximate total dose of 2.5 kJ/m^2. The dose of irradiation applied was determined by means of a ultraviolet light detector, the response curve of which is shown in Figure 2.
Twenty four hours after ending the exposure, the back of the animals was photographed and they were returned to their cages. The evaluation of erythema was performed by means of a positive/negative criterion, the percentage of protected animals being obtained. The statistic significance of the difference was evaluated by means of the non-parametric Fisher Test.

The nature of data set [2]: Photostability evaluation (irradiation in MeOH, TLC analysis). The format is physicochemical. Conditions: MeOH, irradiated for 2 hours, 450W lamp; approximate estimation of the total sum of photoproducts. As to the method: All the irradiations preformed in the photostability studies were carried out in an ACE 7840 photoreactor using a 450W power ACE 7825 lamp.
The solvent used in the photostability test was methanol [MeOH] (ppa) (250 mL), using a concentration of […] of p-nitrolophine. The solution was irradiated for 2 hours, samples being taken at 10 minutes, 20 minutes, 1 hour and 2 hours, and being dried in a rotating evaporator. Each sample was analyzed by thin layer chromatography (TLC in Silica gel) using petroleum ether:ethyl acetate (4:1) as eluent. The chromatography plates were viewed under a 254 nm lamp and a 366 nm lamp, as well as by means of simultaneous viewing under both lamps (254 and 366 nm).
Specifically, three photoproducts (three blots) could be determined, which were isolated by preparative TLC.
A saturated solution of m-nitrolophine in MeOH was prepared to perform the study since the solubility in this solvent is low (approximately 0.2 mg/mL). Briefly, an amount of m-nitrolophine sufficient to ensure the saturation in 200 mL of MeOH throughout the night was left stirring. The solution was filtered and irradiated for 2 hours, samples of 10 mL being taken at 10 minutes, 20 minutes, 1 hour and 2 hours, and being dried in rotating evaporator. […]

Data set [3] in a line: Specific molar absorptivity of p-nitrolophine in MeOH at 379 nm. The format is physicochemical. As to the method:
As a preliminary step, in the case of p-nitrolophine the specific molar absorptivity of the molecule (ε) (A^11) was determined. To that end, 50.4 mg of p-nitrolophine were weight, they were dissolved in 100.0 mL of MeOH (ppa); 4 dilutions were then performed by taking 1.0, 2.0, 5.0 and 10.0 mL from this mother liquor and topping up each of them to a volume of 100.0 ml with MeOH (ppa). […]
The slope of the straight line obtained from these points (Y= 16.717x + 0.03; R2 = 0.9993) therefore coincides with the value of specific molar absorptivity of p-nitrolophine at 379 nm ε(379nm) = 16.717 A.U.L/mol [formula]

With `O=[N+]([O-])c1ccc(-c2nc(-c3ccccc3)c(-c3ccccc3)[nH]2)cc1` [p-nitrolophine, 2-(4-nitrophenyl)-4,5-diphenyl-1H-imidazole], the “Erythema induced by UVB radiation in mouse” value in data set [1] is reported as “-”. Also, the degradation entry in data set [2] is on record as “lower than 5%”. Besides, in data set [3] (379 nm, slope of the straight line), the “specific molar absorptivity ε(379nm)” value is 16.717 A.U.L/mol. Moreover, the “Abs. at 379 nm (A.U.)” value in data set [3] (Concentration (mol) 0.0000147) came out at 0.2572 A.U; in data set [3] (Concentration (mol) 0.00002953), 0.5214 A.U; in data set [3] (Concentration (mol) 0.00007382) it was 1.301 A.U; in data set [3] (Concentration (mol) 0.00014764), 2.4819 A.U.
